# Source: patent publication US5840936A, “Aminosterol compounds useful as inhibitors of the sodium/proton exchanger (NHE)” (priority 1995, dated 1998)
# “Also recorded” adds a separate entry of the source.
# Legend:
# [1] = test system: chick embryo vitelline capillaries; test: Chick embryo vitelline capillary regression assay; type: in vivo; design: key to Vitelline capillary regression: +: Vascular reactivity; 0: No vascular reactivity; +/-: Equivocal reactivity; conditions: for Effect on chick embryo vessels: 3- to 5-day chick embryo
# Description: Using the chick embryo vitelline capillaries assay, compounds were tested for their ability to induce capillary regression. Each compound was applied in 0.1 ml of 15% Ficol 400 and PBS onto the embryo, and vascular regression was assessed after 60 minutes.
# The 3-day chick embryo consists of an embryonic disc from which numerous vessels emerge and return, forming a "FIG. 8"-shaped structure--the embryo in the center with vascular loops extending outward over both poles. […] Following a lag period of around 15 minutes, the constriction of continuity between capillary and secondary vessels, generally on the "venous" side, was observed. Continued pulsatile blood flow progressed, resulting in a "swelling" of the blind tube, followed by a pinching off of the remaining connection and formation of an enclosed vascular sac resembling a "blood island." This process progressed until only the largest vessels remained intact.
# B16 melanoma = test: Suppression of B16 melanoma growth in C57B mice; type: in vivo, mouse
# Description: The growth of B16 melanoma in C57B mice is dependent upon neovascularization.
# Using the growth of B16 melanoma cells in C57B mice, a recognized model for the evaluation of inhibitors of angiogenesis on the growth of cancers, the effects of subcutaneous, intraperitoneal and oral administration of squalamine were evaluated.
# Animals were implanted with B16 melanoma followed by treatment with compound 1436 or 1256 administered in a combined schedule or separately. […] Thus, a combination of these two compounds achieves a theraputic benefit in tumors dependent on neovascularization that may prevent metastatic spread.
# [2] = test system: Xenopus tadpoles, stage 59-60; test: Xenopus tadpole assay
# Mouse IV PK study = conditions: in vivo
# Description: To assess clearance, a mouse IV PK study was performed for compound 319 and squalamine. The compound was administered i.v. and blood samples were taken every 10 minutes. The concentration of the administered steroid was determined by HPLC analysis.
# rabbit NHE3 = rabbit NHE3 (Oryctolagus cuniculus, UniProt P26432); test: NHE3 inhibition, internal pH (BCECF-AM) in transfected PS120 fibroblasts
# rabbit NHE3, sequence (P26432 30-832): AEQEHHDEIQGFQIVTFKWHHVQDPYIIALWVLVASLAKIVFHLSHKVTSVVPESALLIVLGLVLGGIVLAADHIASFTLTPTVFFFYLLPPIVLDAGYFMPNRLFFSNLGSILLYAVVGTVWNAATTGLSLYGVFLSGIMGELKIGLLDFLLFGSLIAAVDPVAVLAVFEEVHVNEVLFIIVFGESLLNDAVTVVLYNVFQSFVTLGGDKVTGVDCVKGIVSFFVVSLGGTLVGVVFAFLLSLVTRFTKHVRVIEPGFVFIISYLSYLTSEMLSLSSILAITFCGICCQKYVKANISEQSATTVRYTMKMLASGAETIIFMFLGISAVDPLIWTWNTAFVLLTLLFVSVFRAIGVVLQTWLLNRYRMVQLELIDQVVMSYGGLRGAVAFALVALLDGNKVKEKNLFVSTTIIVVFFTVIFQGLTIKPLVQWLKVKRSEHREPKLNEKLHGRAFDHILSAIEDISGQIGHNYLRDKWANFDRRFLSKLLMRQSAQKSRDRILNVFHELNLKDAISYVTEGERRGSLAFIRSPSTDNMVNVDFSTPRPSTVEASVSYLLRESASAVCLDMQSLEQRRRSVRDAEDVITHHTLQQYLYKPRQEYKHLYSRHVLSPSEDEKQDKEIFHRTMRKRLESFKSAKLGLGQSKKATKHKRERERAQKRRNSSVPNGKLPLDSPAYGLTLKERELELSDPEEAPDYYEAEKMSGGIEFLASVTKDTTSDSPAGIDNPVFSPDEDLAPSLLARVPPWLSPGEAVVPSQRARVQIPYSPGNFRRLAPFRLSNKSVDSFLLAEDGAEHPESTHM
# Description: Internal pH was measured either following acid loading or in the absence of an acid-loading challenge, with the results shown in FIGS. 1A and 1B.
# Specifically, PS120 fibroblasts transfected with rabbit NHE3 were grown in supplemented Dulbecco's-modified Eagle's medium as described by Levine et al., J. Biol. Chem. 268, 1993, 25527-25535. […] For cells not acid-preloaded, the actual internal pH value was monitored as a function of time following addition of squalamine, with the results depicted in FIG. 1B.
# PS120 fibroblasts transfected with rabbit NHE3 were grown and acid preloaded by exposure to 40 mM NH4 Cl as described above in conjunction with FIGS. 1A and 1B. Internal cellular pH changes expressed as the rate of pH recovery as a function of restored extracellular sodium ion concentration following exposure to 10 μg/ml of the compound were assayed with the fluorescent dye BCECF-AM as described above.
# [3] = Fasting blood glucose in mice; type: in vivo, male CD-1 mice; conditions: total dose 20 mg/kg i.v. (2 × 10 mg/kg), 30 min. after 2d dose
# Description: To study the effect of steroid administrator or the NHE responsible for secretion of insulin, several of the aminosterols from shark liver were administered to fasting mice. Male CD-1 mice were assigned to one of four treatment groups. Whole blood glucose was tested using glucometer (Lifescan Glucometer II and One Touch test strips). Statistical analysis was via one-way analysis of variance (ANOVA) followed by subsequent Bonferonni's t-test.
# human melanoma 1205Lu = test: Suppression of human melanoma in RAG-1 mice; type: in vivo
# Excerpt: As apparent from FIG. 5, melanoma 120SLu develops aggressively in RAG-1 mice after implantation.
# ELC = ELC MTT; type: cell-based; conditions: Table II; read-out: ELC MTT, Minimum Effective Concentration
# [4] = test system: human umbilical venous endothelial cells; test: LPS-induced neutrophil adherence to human umbilical venous endothelial cells; conditions: 10 μg, 1.0 μg, or 0.1 μg; LPS or TNF-α
# Description: In these experiments, approximately 2×10^5 human umbilical venous cells (passage 2-6) were plated per well. The cells were grown in serum-free media overnight. For induction, either TNF-α (40 ng/ml) was added to endothelial cells for 6 hours prior to adding neutrophils or LPS (100 ng/ml) was added for 4-6 hours. […] After activation of the endothelial cells, approximately 50×10^6 neutrophils were added per well. The plates were gently rocked for 30 minutes at room temperature, followed by removal of the media and washing in serum-free media three times and then photographing of each well. […] A monoclonal Ab to ICAM-1 was a positive control.
# [5] = test system: human foreskin fibroblasts; test: Growth inhibition of fibroblasts in vitro; type: cell-based; conditions: 10 μg/ml
# [6] = test system: human epithelial cell line MCF 10A; test: Growth inhibition of epithelial cells in vitro; type: cell-based; conditions: 10 μg/ml
# human NHE1 = test: NHE1 inhibition, internal pH in PS120 fibroblasts expressing human NHE1; type: cell-based; conditions: 5 μg/ml squalamine, acid-preloaded
# Description: (§1) PS120 fibroblasts transfected with rabbit or human NHEl were grown as described above.
# rabbit NHE1 = test: NHE1 inhibition, internal pH in PS120 fibroblasts expressing rabbit NHE1; type: cell-based; conditions: 5 μg/ml squalamine, acid-preloaded
# Description: as §1
# [7] = test system: bovine pulmonary endothelial cells; test: Growth inhibition of endothelial cells in vitro; type: cell-based; conditions: 1 μg/ml
# [8] = test system: chick chorioallantoic membrane capillaries; test: Chorioallantoic membrane (CAM) model, inhibition of capillary growth; type: in vivo; conditions: for Percentage positive, Assay 1 / Percentage positive, Assay 2 / Percentage positive, Mean: 3-day embryo
# Excerpt: The growing capillaries within the chorioallantoic membrane model (CAM model) have been used as a system in which to evaluate the effect of agents on their potential to inhibit new vessel growth. Neovascularization occurs most aggressively over the first week of embryonic development. Thereafter capillary growth is characterized by principally "elongation" rather than "de novo" formation.
# In the standard assay, agents are applied locally to a region of the embryo over which neovascularization will occur. Agents are assessed by their ability to inhibit this process, as evaluated by visual examination about 7 days after application. […] The assay utilized is described in detail in Auerbach et al., Pharm. Ther. 51, 1991, 1-11.
# [9] = test system: human coronary artery smooth muscle; test: Growth of human coronary artery smooth muscle in vitro; type: cell-based; conditions: in vitro
# Excerpt: Aminosterols of the invention may also have utility in inhibiting the growth factor mediated proliferation of smooth muscle within the artery. Following coronary angioplasty, reocclusion commonly occurs, secondary to reparative proliferation of the vascular smooth muscle within the wall of the surgically manipulated blood vessel. This process generally takes place over the course of 7-10 days. To evaluate whether an agent could prevent the growth factor mediated proliferation of smooth muscle within the artery, compound 1436 was evaluated in vitro for its effect on the proliferation of human coronary artery smooth muscle. Results for compound 1436 are shown in FIG. 13, and those for squalamine are shown in FIG. 14, with FIG. 15 being a composite logarithmic plot.
# [10] = test system: Xenopus tadpoles, stage 59-60; conditions: 10 μg/mL
# [11] = test system: human microvascular cells; test: Inhibition of endothelial cell cord formation in vitro; type: cell-based; conditions: concentrations inhibiting cord formation
# Excerpt: Endothelial cells have the capacity in vitro to form tubular aggregates resembling capillaries in various early stages of formation. This conversion occurs under relatively specific conditions, in which essential growth factors along with an effective substratum are provided. It has been shown that both the interaction of growth factors with the endothelial cell and its attachment to a substratum activate the NHE. The activation of this exchanger is believed to be required for subsequent morphologic transformation of the endothelial cell into a multicellular tubular structure.
# To assess the effect of compounds on the cord-like structures formed by human microvascular cells when plated in the presence of VEGF (Vascular Endothelial Growth Factor) and basic fibroblast growth factor on a collagen matrix, a standard cord formation assay was used.
# human melanoma = test: Time course of effect on melanoma growth; apoptosis; type: cell-based
# HM = HM MTT assay; type: cell-based; conditions: Table II; read-out: HM MTT assay, Minimum Effective Concentration
# [12] = 20 μg applied, some vascular irritation noted
# [13] = 40 μg applied, some vascular irritation noted
compound,measurement,setting,value
C[C@H](CCC(=O)O)[C@H]1CC[C@H]2[C@@H]3CC[C@H]4C[C@@H](NCCCNCCCCN)CC[C@]4(C)[C@H]3CC[C@]12C [Compound 319],Vitelline capillary regression,[1]; 0.001 μg applied,+/-
same,Vitelline capillary regression,[1]; 0.01 μg applied,+
same,Vitelline capillary regression,[1]; 0.1 μg applied,+
same,Vitelline capillary regression,[1]; 1 μg applied,+
same,Vitelline capillary regression,[1]; 10 μg applied,+
same,Control of B16 in C57B mice,"B16 melanoma; compound 319, subcutaneous, intraperitoneal (FIG. 6 legend)",control of B16 in C57B mice to an extent almost comparable to squalamine
same,"Tadpole assay, observed effects",[2]; 10 μg/ml,common vascular occlusive effect
same,half-life,Mouse IV PK study,about 14 minute
same,Potency as an NHE inhibitor compared with squalamine,rabbit NHE3,superior to squalamine
CC(C)[C@@H](CC[C@@H](C)[C@H]1CC[C@H]2[C@@H]3[C@H](O)C[C@H]4C[C@@H](NCCCNCCCCN)CC[C@]4(C)[C@H]3CC[C@]12C)OS(=O)(=O)O [Compound 1256],Fasting Blood Glucose Mean ± SEM,[3],65 ± 7.3 mg/dL
same,Vitelline capillary regression,[1]; 0.001 μg applied,0
same,Vitelline capillary regression,[1]; 0.01 μg applied,+
same,Vitelline capillary regression,[1]; 0.1 μg applied,+
same,Vitelline capillary regression,[1]; 1 μg applied,+
same,Vitelline capillary regression,[1]; 10 μg applied,+
same,Hemorrhage / hemolysis in chick embryo,"[1]; 0.1 ml in 15% Ficol in PBS, listed as Squalamine",No hemorrhage was seen; also recorded: absence of hemolysis
same,Effect on chick embryo vessels,[1],disrupt vitelline capillaries in 3- to 5-day chick embryos
same,"Chick embryo diss. assay, Minimum Effective Concentration",[1]; Table II,0.01 µg
same,Tumor growth after cessation of treatment,human melanoma 1205Lu,tumor growth continued at a rate similar to untreated controls
same,Suppression of growth of melanoma 1205Lu,"human melanoma 1205Lu; 10, 20, 40 mg/kg/d, listed as Squalamine",suppress the growth of melanoma 1205Lu in RAG-1 mice in a dose-dependent fashion; also recorded: clear suppression of tumor growth in a dose-dependent fashion
same,minimal effective concentration,ELC,13.2 µg/mL
same,Body weight and hematologic parameters,B16 melanoma; squalamine,no significant depression
same,Impact on tumor volume,B16 melanoma; squalamine 5 mg/kg/day,no significant impact on tumor volume
same,Tumor growth effect of single agent compared with combination,"B16 melanoma; squalamine 15 mg/kg/day, compound 1436 alone in a tolerable schedule",Neither administration of squalamine at 15 mg/kg/day nor compound 1436 alone in a tolerable schedule could achieve this effect
same,Suppression of tumor volume,"B16 melanoma; squalamine, subcutaneous, intraperitoneal or oral",dose-dependent suppression of tumor volume
same,"Tadpole assay, observed effects",[2]; 10 μg/ml,Vascular occlusion in fine capillaries of tail; also recorded: No effect on vascular flow through hands or feet
same,Tadpole time to death,[2]; 10 μg/ml,≤ 2 h
same,"Tadpole assay, observed effects","[2]; 10 μg/ml, listed as squalamine",blood flow through the capillaries of the tail shut down; also recorded: unaltered blood flow through the fine capillaries of the hands and feet; also recorded: common vascular occlusive effect
same,Inhibition of neutrophil adherence,[4],no inhibition
same,Growth inhibition of fibroblasts,[5],no effect
same,Growth inhibition of epithelial cells,[6],no effect
same,Inhibition of human NHE1,human NHE1,no inhibitory activity; also recorded: lack of inhibition of human NHE1
same,Inhibition of rabbit NHE1,rabbit NHE1,no inhibitory activity; also recorded: lack of inhibition of rabbit sodium/proton exchanger isoform 1 (NHE1)
same,Growth inhibition of bovine pulmonary endothelial cells (BPE),[7],inhibited the growth of bovine pulmonary artery endothelial cells (BPE)
same,Inhibition of CAM vessel neovascularization,"[8]; 3-day CAM, 0.65 μg",inhibition of CAM vessel neovascularization
same,"Percentage positive, Assay 1",[8]; 0.65 μg applied,28%
same,"Percentage positive, Assay 1",[8]; 1.25 μg applied,18%
same,"Percentage positive, Assay 2",[8]; 1.25 μg applied,18%
same,"Percentage positive, Mean",[8]; 1.25 μg applied,18%
same,"Percentage positive, Assay 1",[8]; 2.5 μg applied,35%
same,"Percentage positive, Assay 2",[8]; 2.5 μg applied,18%
same,"Percentage positive, Mean",[8]; 2.5 μg applied,27%
same,"Percentage positive, Assay 1",[8]; 5.0 μg applied,91%
same,"Percentage positive, Assay 2",[8]; 5.0 μg applied,57%
same,"Percentage positive, Mean",[8]; 5.0 μg applied,74%
same,"Percentage positive, Mean",[8]; 20 μg applied,55%
same,"Percentage positive, Assay 1",[8]; [12],52%
same,"Percentage positive, Assay 2",[8]; [12],58%
same,"Percentage positive, Mean",[8]; 40 μg applied,32%
same,"Percentage positive, Assay 1",[8]; [13],50%
same,"Percentage positive, Assay 2",[8]; [13],13%
same,Percentage positive,"[8]; 13-day embryo, 5.0 μg applied",0/26
same,Inhibition of CAM vessel neovascularization,"[8]; 13-day old chick, ten times that amount",no inhibitory effect
same,Suppression of growth of human coronary artery smooth muscle,[9],suppress in vitro the growth of human coronary artery smooth muscle
same,Tadpole E (epithelial),[10],-
same,Tadpole GI (gastrointestinal),[10],-
same,Tadpole M (melanocytes),[10],-
same,Tadpole Mus (muscle),[10],-
same,Tadpole V (vascular),[10],+
same,Effect on cell viability or proliferation,[11],does not appear to profoundly affect cell viability or proliferation
same,Inhibition of NHE3,"rabbit NHE3; 5 μg/ml squalamine, acid-preloaded and not acid-preloaded cells",inhibited NHE3 with respect to proton concentration at both Km and Vmax levels
same,Effect on resting pH,"rabbit NHE3; 5 μg/ml, not acid-preloaded",causes the cell to drop to a lower pH in its presence before activation of the pump occurs
same,NHE isoform specificity,"rabbit NHE3; NHE3 vs NHE1, listed as squalamine","inhibits NHE3, but not NHE1; also recorded: specificity for NHE3 over NHE1"
CC(C)CCC[C@@H](C)[C@H]1CC[C@H]2[C@@H]3CC[C@H]4C[C@@H](NCCCNCCCCNCCCN)CC[C@]4(C)[C@H]3CC[C@]12C [Compound 353],Vitelline capillary regression,[1]; 1 μg applied,+/-
same,Effect on chick embryo vessels,[1],no effect on the chick embryo capillary bed
same,minimal effective concentration,ELC,1.9 µg/mL
same,Pharmacologic similarity in tadpole assay,[2]; in vivo,effects like those produced by compound 1436
same,Apoptosis,human melanoma,apoptotic cell death has been induced
same,Time course of effect on growth of melanoma,human melanoma,"most pronounced over 48 hours, with less of an effect noted within the first 12 hours of incubation"
same,minimal effective concentration,HM,3 µg/mL
